Where “and” joins values, the source holds several entries; their conditions need not be identical. Equal entries are not always repeated. Inconclusive results and toxic doses are left out. Rule for the calls: active = survival T/C of 150% or more; inactive = T/C below 125% in these data.
Test system: P388 leukemia ip, CD2F1 mice, survival T/C
Assay: NCI In Vivo Anticancer Drug Screen. Data for tumor model P388 Leukemia (intraperitoneal) in CD2F1 (CDF1) mice
Settings: endpoint: median survival time, higher = longer survival
Outline: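 Mice carrying the transplanted tumor received test compound or vehicle. Survival was recorded in each group, and the value is the treated-group measurement divided by that of the vehicle-treated control group.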

[1] = dose: 50.0 mg/kg/injection, schedule: Q01DX005 (ip), vehicle: saline with Tween-80
[2] = dose: 100.0 mg/kg/injection, schedule: Q01DX005 (ip), vehicle: saline with Tween-80
[3] = dose: 200.0 mg/kg/injection, schedule: Q01DX005 (ip), vehicle: saline with Tween-80
[4] = dose: 50.0 mg/kg/injection, schedule: Q01DX009 (ip), vehicle: Klucel (hydroxypropylcellulose) (HPC)
[5] = dose: 100.0 mg/kg/injection, schedule: Q01DX009 (ip), vehicle: Klucel (hydroxypropylcellulose) (HPC)
[6] = dose: 200.0 mg/kg/injection, schedule: Q01DX009 (ip), vehicle: Klucel (hydroxypropylcellulose) (HPC)
[7] = dose: 12.5 mg/kg/injection, schedule: Q01DX009 (ip), vehicle: saline
[8] = dose: 25.0 mg/kg/injection, schedule: Q01DX009 (ip), vehicle: saline
[9] = dose: 100.0 mg/kg/injection, schedule: Q01DX009 (ip), vehicle: saline with Tween-80
[10] = dose: 60.0 mg/kg/injection, schedule: Q01DX005 (ip), vehicle: saline with Tween-80
[11] = dose: 120.0 mg/kg/injection, schedule: Q01DX005 (ip), vehicle: saline with Tween-80
[12] = dose: 240.0 mg/kg/injection, schedule: Q01DX005 (ip), vehicle: saline with Tween-80
[13] = dose: 12.5 mg/kg/injection, schedule: Q01DX009 (ip), vehicle: Klucel (hydroxypropylcellulose) (HPC)
[14] = dose: 25.0 mg/kg/injection, schedule: Q01DX009 (ip), vehicle: Klucel (hydroxypropylcellulose) (HPC)
[15] = dose: 50.0 mg/kg/injection, schedule: Q01DX009 (ip), vehicle: saline with Tween-80

Measured: T/C

OCC1OC(OC2(CO)OC(CO)C(O)C2O)C(O)C(O)C1O (stereo not given)
inactive: dose: 4.0 mg/kg/injection, schedule: Q01DX005 (ip), vehicle: saline 98 % of control | dose: 8.0 mg/kg/injection, schedule: Q01DX005 (ip), vehicle: saline 96 % of control | dose: 32.0 mg/kg/injection, schedule: Q01DX005 (ip), vehicle: saline 96 % of control | dose: 64.0 mg/kg/injection, schedule: Q01DX005 (ip), vehicle: saline 97 % of control | dose: 100.0 mg/kg/injection, schedule: Q01DX009 (ip), vehicle: saline 97 % of control | dose: 128.0 mg/kg/injection, schedule: Q01DX005 (ip), vehicle: saline 99 % of control | dose: 200.0 mg/kg/injection, schedule: Q01DX009 (ip), vehicle: saline 97 % of control | dose: 256.0 mg/kg/injection, schedule: Q01DX005 (ip), vehicle: saline 98 % of control | dose: 400.0 mg/kg/injection, schedule: Q01DX009 (ip), vehicle: saline 98 % of control | dose: 512.0 mg/kg/injection, schedule: Q01DX005 (ip), vehicle: saline 100 % of control | dose: 1024.0 mg/kg/injection, schedule: Q01DX005 (ip), vehicle: saline 106 % of control | dose: 2048.0 mg/kg/injection, schedule: Q01DX005 (ip), vehicle: saline 108 % of control

COC(=O)C1CCCC(C(=O)O)C1 (stereo not given)
inactive: dose: 100.0 mg/kg/injection, schedule: Q01DX002 (ip), vehicle: saline with Tween-80 102 % of control | dose: 200.0 mg/kg/injection, schedule: Q01DX002 (ip), vehicle: saline with Tween-80 102 % of control | dose: 400.0 mg/kg/injection, schedule: Q01DX002 (ip), vehicle: saline with Tween-80 117 % of control

CS(=O)(=O)O/C=C1/CCOC1=O
inactive: dose: 3.13 mg/kg/injection, schedule: Q01DX009 (ip), vehicle: water 107 % of control | dose: 6.25 mg/kg/injection, schedule: Q01DX009 (ip), vehicle: water 104 % of control | dose: 12.5 mg/kg/injection, schedule: Q01DX009 (ip), vehicle: water 102 % of control and 108 % of control | dose: 25.0 mg/kg/injection, schedule: Q01DX009 (ip), vehicle: water 120 % of control

COc1cc2c(c(OC)c1OC)CCc1cn[nH]c1-2
inactive: dose: 100.0 mg/kg/injection, schedule: Q01DX001 (ip), vehicle: Klucel (hydroxypropylcellulose) (HPC) 116 % of control | dose: 200.0 mg/kg/injection, schedule: Q01DX001 (ip), vehicle: Klucel (hydroxypropylcellulose) (HPC) 123 % of control | dose: 400.0 mg/kg/injection, schedule: Q01DX001 (ip), vehicle: Klucel (hydroxypropylcellulose) (HPC) 116 % of control

Brc1ccc(Nc2nnc3nc(-c4ccccc4)c(-c4ccccc4)nn23)cc1
inactive: [1] 89 % of control | [2] 89 % of control | [3] 97 % of control

CC(=O)OC1=NC(C)c2c1cc(OC(C)=O)nc2OC(C)=O (stereo not given)
inactive: [4] 104 % of control | [5] 102 % of control | [6] 102 % of control

CC(C)(C)NCC(O)COc1nsnc1N1CCOCC1 (stereo not given)
inactive: dose: 50.0 mg/kg/injection, schedule: Q01DX009 (ip), vehicle: water 103 % of control | dose: 100.0 mg/kg/injection, schedule: Q01DX009 (ip), vehicle: water 108 % of control | dose: 200.0 mg/kg/injection, schedule: Q01DX009 (ip), vehicle: water 111 % of control

C/C(=N\N=C(/[Se])N1CCC1)c1ccccn1
inactive: dose: 12.5 mg/kg/injection, schedule: Q04DX003 (ip), vehicle: Klucel (hydroxypropylcellulose) (HPC) 106 % of control | dose: 25.0 mg/kg/injection, schedule: Q04DX003 (ip), vehicle: Klucel (hydroxypropylcellulose) (HPC) 104 % of control

CCCCC1C=CC2C(N1)N2C#N (stereo not given)
inactive: dose: 6.25 mg/kg/injection, schedule: Q01DX009 (ip), vehicle: saline 102 % of control | [7] 99 % of control | [8] 102 % of control | [9] 86 % of control

CCCCCSc1nc2ccc(NCN3C(=O)C4C5C=CC(C5)C4C3=O)cc2s1 (stereo not given)
inactive: [4] 98 % of control | [5] 86 % of control | [6] 92 % of control

Cn1c2ccccc2c(=O)c2cc(NC(=O)CCCCC(=O)Nc3ccc4c(c3)c(=O)c3ccccc3n4C)ccc21
inactive: [10] 101 % of control | [11] 107 % of control | [12] 101 % of control

CC(=O)c1nc2c(N)nc(N)nc2nc1C
inactive: dose: 25.0 mg/kg/injection, schedule: Q04DX003 (ip), vehicle: saline with Tween-80 96 % of control | dose: 50.0 mg/kg/injection, schedule: Q04DX003 (ip), vehicle: saline with Tween-80 96 % of control | dose: 100.0 mg/kg/injection, schedule: Q04DX003 (ip), vehicle: saline with Tween-80 96 % of control

C=C1CC/C=C(\C)CCC2C1CC2(C)C (stereo not given)
inactive: [13] 100 % of control | [14] 100 % of control | [4] 102 % of control | [5] 105 % of control | [6] 113 % of control

COc1ccc(/C=N/N2CN(C(C)C(=O)O)B(N(CCO)CCO)N=C2N)cc1OC (stereo not given)
inactive: dose: 60.0 mg/kg/injection, schedule: Q01DX005 (ip), vehicle: saline 104 % of control | dose: 120.0 mg/kg/injection, schedule: Q01DX005 (ip), vehicle: saline 107 % of control | dose: 240.0 mg/kg/injection, schedule: Q01DX005 (ip), vehicle: saline 107 % of control

CCOC(=O)c1cc2c(oc1=O)-c1cc(C)ccc1OC2C (stereo not given)
inactive: [10] 104 % of control | [11] 110 % of control | [12] 105 % of control

O=C(O)c1[nH]c(=O)[nH]c(=O)c1[N+](=O)[O-]
inactive: dose: 50.0 mg/kg/injection, schedule: Q01DX005 (ip), vehicle: Klucel (hydroxypropylcellulose) (HPC) 93 % of control | dose: 100.0 mg/kg/injection, schedule: Q01DX005 (ip), vehicle: Klucel (hydroxypropylcellulose) (HPC) 98 % of control | dose: 200.0 mg/kg/injection, schedule: Q01DX005 (ip), vehicle: Klucel (hydroxypropylcellulose) (HPC) 98 % of control

CC(=O)CC(=O)N1CCN(C(=O)CC(C)=O)CC1
inactive: dose: 100.0 mg/kg/injection, schedule: Q04DX003 (ip), vehicle: saline 104 % of control | dose: 200.0 mg/kg/injection, schedule: Q04DX003 (ip), vehicle: saline 100 % of control | dose: 400.0 mg/kg/injection, schedule: Q04DX003 (ip), vehicle: saline 100 % of control

CSc1cnnc2ccccc12
inactive: [13] 100 % of control and 95 % of control | [14] 100 % of control and 109 % of control and 88 % of control | [4] 100 % of control and 87 % of control

COc1ccc(C2CC(=O)c3c(O)cc(OC4OC(COC5OC(C)C(O)C(O)C5O)C(O)C(O)C4O)cc3O2)cc1O (stereo not given)
inactive: [1] 94 % of control | [2] 100 % of control | [3] 92 % of control

Cc1c(-c2ccccc2)oc(=O)c(Cl)c1N(C)C
inactive: [1] 102 % of control | [2] 100 % of control | [3] 100 % of control

FC(F)(F)c1cccc(CSCc2c(CSCc3cccc(C(F)(F)F)c3)c(CSCc3cccc(C(F)(F)F)c3)c(CSCc3cccc(C(F)(F)F)c3)c(CSCc3cccc(C(F)(F)F)c3)c2CSCc2cccc(C(F)(F)F)c2)c1
inactive: [15] 104 % of control | [9] 98 % of control | dose: 200.0 mg/kg/injection, schedule: Q01DX009 (ip), vehicle: saline with Tween-80 97 % of control

O=C1Oc2ccc3ccccc3c2CC1C(=O)c1ccc(Cl)cc1 (stereo not given)
inactive: [15] 88 % of control | [9] 88 % of control

CS/C(=C/c1ccc2ccccc2[n+]1C)N1CCOCC1
inactive: dose: 6.25 mg/kg/injection, schedule: Q01DX005 (ip), vehicle: saline with Tween-80 105 % of control and 107 % of control and 108 % of control | dose: 12.5 mg/kg/injection, schedule: Q01DX005 (ip), vehicle: saline with Tween-80 103 % of control and 105 % of control and 119 % of control | dose: 25.0 mg/kg/injection, schedule: Q01DX005 (ip), vehicle: saline with Tween-80 110 % of control (2×) and 121 % of control

NNC(=O)c1ccccc1NC(=O)CSc1nc2ccccc2s1
inactive: [4] 104 % of control | [5] 101 % of control | [6] 101 % of control

CCCCCCCCCCCCCCCCCCOP(=O)([O-])OCC[N+](C)(C)C
inactive: [7] 98 % of control | [8] 107 % of control

From PubChem BioAssay AID330 (DTP/NCI, 2004)
